Reference: patent publication US20130315903A1, “ARYLSULFONAMIDE DERIVATIVES FOR THE PREVENTION OR TREATMENT OF SPECIFIC OPHTHALMOLOGIC DISORDERS” (FOVEA PHARMACEUTICALS, priority 2010, published 2013)
“And” between values parts separate entries of the source, which are not always exact repeats. Equal entries are not always repeated.

Key:
[1] = tested on: retina of diabetic Wistar rats (B1R, B2R, i-NOS, e-NOS, COX-2, ICAM-1, VEGF-R2, VEGF-a, IL-1β, HIF-1α mRNA); test: mRNA expression of cytokines, vasoactive mediators and growth factors in retina of diabetic Wistar rats; format: in vivo, rat; settings: 1% eye drops 7 days
[2] = tested on: leukocyte adhesion to the retinal vasculature; test: Leukocyte adhesion to the retinal vasculature (leukostasis) of streptozotocin-diabetic Wistar rats; format: in vivo, rat; settings: 1% phosphate eye drop twice-a-day for 7 days, P<0.05
Excerpt: The effect of compound n° 49 phosphate on leukocyte adhesion to the retinal vasculature of streptozotocin-diabetic Wistar rats was also investigated using the same protocol of administration of compound n° 49 phosphate (1% eye drop twice-a-day for 7 days).

[3] = tested on: retinal vascular permeability in streptozotocin-diabetic Brown-Norway rats; test: Retinal vascular permeability (Evans Blue dye) in streptozotocin-diabetic Brown-Norway rats, eye drops; format: in vivo, rat
Description: Male Brown-Norway or Wistar rats were made diabetic by […] injection of 65 mg/kg intraperitoneal streptozotocin. Rats with a glycemia <350 mg/dl were discarded from the study. Seven days later, Brown-Norway rats were treated twice daily for 7 days with a single eye drop (10 μl) containing 0.1, 0.3, 1 and 3% phosphate salt of compound n° 49 or its vehicle (Saline Solution). Wistar rats were treated over the same period (from day 7 for 7 days) with a single eye drop (10 μl) containing 0.3 and 1% fumarate salt of compound n° 49 or its vehicle (Saline Solution). On day 15, retinal vascular leakage was determined by measurement of retinal content of Evans Blue dye.
More specifically, FIG. 1A is the dose-response of compound n° 49 instilled twice a day for 7 days as eye drops (0.1 to 3%) on retinal vascular leakage in streptozotocin-diabetic Brown-Norway rats. Recombinant tissue kallikrein binding protein (rKBP) was used as a reference drug and was given intravitreally 48 hours before vascular leakage measurement. Values are means ±standard error mean of 12 eyes/group (6 rats). *** means that P<0.001in a Student's t-test.
The route by which the phosphate salt of compound n° 49 reaches the retina following topical instillation was investigated to determine whether it is mainly by systemic circulation or by the trans- and/or peri-ocular pathway. Diabetic Brown-Norway rats were treated with 3% compound n° 49 phosphate in a single eye for 7 days or subcutaneously with matching daily dosage (0.6 mg/rat). […] In addition, a daily subcutaneous administration of 0.6 mg compound n° 49 phosphate rat had no effect on retinal vascular permeability.

[4] = tested on: retina of diabetic Wistar rats (B1R, B2R, i-NOS, e-NOS, COX-2, ICAM-1, VEGF-R2, VEGF-a, IL-1β, HIF-1α mRNA); test: mRNA expression of cytokines, vasoactive mediators and growth factors in retina of diabetic Wistar rats; format: in vivo, rat; settings: 1% eye drops 7 days; remark: listed apart in the source
Excerpt: In order to explore molecular pathways involved into reduction of retinal vascular permeability by compound n° 49 phosphate in diabetic rats, expression of mRNA of cytokines, vasoactive mediators and growth factors was quantified in retina of control and diabetic Wistar rats treated or not with 1% compound n° 49 phosphate eye drops for 7 days. Expression of mRNA of B1R, B2R, i-NOS, e-NOS, COX-2, ICAM-1, VEGF-R2, VEGF-a, IL-1β and HIF-1α was increased in diabetic rat retina compared to control by 7.5-fold (P<0.05), 5.5, 15- (P<0.01), 6.5-, 8- (P<0.05), 8- , 5- (P<0.05), 12-, 6.5- (P<0.01) and 7-fold (P<0.05), respectively. Expression of TNF-α mRNA remained unchanged.

[5] = tested on: retinal vascular leakage in STZ diabetic Brown-Norway rats; settings: intravitreal route, positive reference drug; cited from earlier work

For `COc1cc(C)c(S(=O)(=O)N(C)CCOCC(=O)N(C)Cc2ccc(C3=NCCN3)cc2)c(C)c1` [compound n° 49 phosphate], the “mRNA expression of IL-1β in retina” value [1] was “down-regulated to control level”, the “leukostasis in retinal vessels of diabetic rats” value [2] was “significantly blunted” and the “reduction of retinal vascular permeability, treated eye” value ([3]; 3% phosphate in a single eye for 7 days, diabetic Brown-Norway rats, P<0.001) was 37%. For the same molecule, the “reduction of retinal oedema, maximum” value ([3]; phosphate salt, eye drop 0.1-3% twice daily for 7 days, dose-dependent, diabetic Brown-Norway rats) was 55%, the “mRNA expression of B1R in retina” value [4] was “down-regulated to control level” and the “mRNA expression of B2R in retina” value [4] was “down-regulated to control level”. The “mRNA expression of COX-2 in retina” value [4] was “down-regulated to control level”, the “mRNA expression of HIF-1α in retina” value [4] was “down-regulated to control level” and the “mRNA expression of ICAM-1 in retina” value [4] was “down-regulated to control level”. For the same molecule, the “mRNA expression of VEGF-A in retina (in list down-regulated to control level)” value [4] was “down-regulated to control level”, the “mRNA expression of e-NOS in retina” value [4] was “down-regulated to control level” and the “mRNA expression of i-NOS in retina” value [4] was “down-regulated to control level”. The “reduction of expression of VEGF-A mRNA in retina” value [4] was 50%.

With `COc1cc(C)c(S(=O)(=O)N(C)CCOCC(=O)N(C)Cc2ccc(C3=NCCN3)cc2)c(C)c1` [compound n° 49] the “reduction of retinal edema, maximum” value ([3]; 1% eye drops, two separate preliminary studies (data not shown), strain not stated) was 58% and 63%.

B1: rKBP: Recombinant tissue kallikrein binding protein, reference drug given intravitreally (protein, UniProt P29622 21-427, looked up)
Kallistatin: QLHVEHDGESCSNSSHQQILETGEGSPSLKIAPANADFAFRFYYLIASETPGKNIFFSPLSISAAYAMLSLGACSHSRSQILEGLGFNLTELSESDVHRGFQHLLHTLNLPGHGLETRVGSALFLSHNLKFLAKFLNDTMAVYEAKLFHTNFYDTVGTIQLINDHVKKETRGKIVDLVSELKKDVLMVLVNYIYFKALWEKPFISSRTTPKDFYVDENTTVRVPMMLQDQEHHWYLHDRYLPCSVLRMDYKGDATVFFILPNQGKMREIEEVLTPEMLMRWNNLLRKRNFYKKLELHLPKFSISGSYVLDQILPRLGFTDLFSKWADLSGITKQQKLEASKSFHKATLDVDEAGTEAAAATSFAIKFFSAQTNRHILRFNRPFLVVIFSTSTQSVLFLGKVVDPTKP
For B1, the “reduction of retinal vascular leakage” value [5] is given as “approximately 50%”.
